According to the supplement of paper PMC10307832:

Tests used:
Quizartinib + Dasatinib = compound: CC(C)(C)c1cc(NC(=O)Nc2ccc(-c3cn4c(n3)sc3cc(OCCN5CCOCC5)ccc34)cc2)no1 [Quizartinib] + Cc1nc(Nc2ncc(C(=O)Nc3c(C)cccc3Cl)s2)cc(N2CCN(CCO)CC2)n1 [Dasatinib] (partner 0.075 µM); experiment: relative viability (nuclei count vs DMSO), 5 days (fraction); higher = more cells survive
How it was run: (§1)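 Lung cancer cell lines in 1536-well plates got either a single drug or a fixed anchor-drug dose together with five library-drug doses (not always all listed) in √10 steps, by pin tool, on the day after seeding. Nuclei were counted after 5 days, and relative viability is the treated-to-vehicle ratio of nuclei counts. Values are medians of duplicate plates.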

Quizartinib + Luminespib = compound: CC(C)(C)c1cc(NC(=O)Nc2ccc(-c3cn4c(n3)sc3cc(OCCN5CCOCC5)ccc34)cc2)no1 [Quizartinib] + CCNC(=O)c1noc(-c2cc(C(C)C)c(O)cc2O)c1-c1ccc(CN2CCOCC2)cc1 [Luminespib] (partner 0.01 µM); experiment: as above
How it was run: as §1

Cell Line	relative viability (Quizartinib + Dasatinib; first compound 0.001 µM)	relative viability (Quizartinib + Dasatinib; first compound 0.003162 µM)	relative viability (Quizartinib + Dasatinib; first compound 0.01 µM)	relative viability (Quizartinib + Dasatinib; first compound 0.03162 µM)	relative viability (Quizartinib + Dasatinib; first compound 0.1 µM)	relative viability (Quizartinib + Luminespib; first compound 0.001 µM)	relative viability (Quizartinib + Luminespib; first compound 0.003162 µM)	relative viability (Quizartinib + Luminespib; first compound 0.01 µM)	relative viability (Quizartinib + Luminespib; first compound 0.03162 µM)	relative viability (Quizartinib + Luminespib; first compound 0.1 µM)
H3255	0.414	0.347	0.366	0.346	0.345	0.788	0.857	0.966	0.971	0.875
NCI-H1755	0.389	0.367	0.409	0.429	0.404	0.473	0.243	0.555	0.459	0.39
NCI-H23	–	0.733	0.696	0.712	0.853	0.209	0.245	0.219	–	0.185
NCI-H661	0.756	0.896	1.09	0.837	0.887	0.921	0.899	0.929	0.905	0.9
PC-14	0.262	0.238	0.321	–	0.254	0.181	0.168	0.164	–	0.127
NCI-H647	0.173	0.181	0.178	0.199	0.185	0.174	0.155	0.213	0.327	0.189
NCI-H1792	–	0.742	0.84	0.658	0.836	–	0.484	0.452	0.321	0.444
SW 900	0.557	0.294	–	0.563	0.616	0.159	0.188	–	0.153	0.161
EKVX	–	0.588	0.514	0.56	0.602	0.673	0.805	0.862	0.829	0.865
COR-L23	0.452	0.437	0.557	0.414	0.461	0.653	0.613	0.773	0.439	0.668
NCI-H1355	0.719	0.762	0.684	0.747	0.66	0.814	0.689	0.721	0.68	0.725
NCI-H2085	0.282	0.237	0.253	0.231	0.236	0.403	0.391	0.454	0.419	0.393
A-427	–	0.718	0.706	0.657	0.663	1.03	0.777	0.988	0.506	1.01
LOU-NH91	0.574	0.615	0.553	0.524	0.62	0.317	0.355	0.292	0.362	0.343
CAL-12T	0.382	0.489	0.535	0.388	0.328	0.456	0.373	0.638	0.357	0.363
NCI-H520	0.169	0.192	0.244	0.198	0.171	0.232	0.201	0.207	0.333	0.255
LCLC-103H	0.461	0.454	0.402	0.557	0.487	1	0.896	0.989	1.04	0.961

Cell Line	relative viability (Quizartinib + Dasatinib; first compound 0.001 µM)	relative viability (Quizartinib + Dasatinib; first compound 0.003162 µM)	relative viability (Quizartinib + Dasatinib; first compound 0.01 µM)	relative viability (Quizartinib + Dasatinib; first compound 0.03162 µM)	relative viability (Quizartinib + Dasatinib; first compound 0.1 µM)	relative viability (Quizartinib + Luminespib; first compound 0.001 µM)	relative viability (Quizartinib + Luminespib; first compound 0.003162 µM)	relative viability (Quizartinib + Luminespib; first compound 0.01 µM)	relative viability (Quizartinib + Luminespib; first compound 0.03162 µM)	relative viability (Quizartinib + Luminespib; first compound 0.1 µM)
NCI-H1651	0.306	0.429	0.392	0.296	0.441	0.811	0.794	0.913	0.599	0.92
NCI-H2347	0.3	0.298	0.296	0.376	0.304	0.335	0.51	0.41	0.495	0.624
LC-2-ad	0.48	0.799	0.546	–	0.5	0.938	1.07	0.945	–	0.985
NCI-H3122	0.92	0.565	1	0.721	0.838	0.0909	0.0886	0.079	0.106	0.112
NCI-H1563	0.523	0.505	0.458	0.468	0.493	0.516	0.499	0.528	0.551	0.584
HCC-78	0.354	0.53	0.308	0.294	0.346	–	–	–	–	–
LK-2	0.31	–	0.313	0.205	0.284	0.162	–	0.193	0.205	0.22
RERF-LC-KJ	0.765	0.755	0.794	0.414	0.681	1.12	1.19	1.38	0.96	1.12
NCI-H1944	0.214	0.217	0.204	0.199	0.224	0.757	0.804	0.774	0.727	0.722
ChaGo-K-1	0.595	0.543	0.588	0.606	0.56	0.522	0.635	0.682	0.625	0.601
NCI-H1734	0.408	0.421	0.431	0.481	0.453	0.16	0.257	0.188	0.178	0.197
201T	0.588	0.563	0.621	0.574	0.57	1.01	1.01	0.963	1.01	1.01
HCC-827	0.315	0.396	0.325	0.274	0.281	0.647	0.487	0.606	0.401	0.738
LCLC-97TM1	0.856	0.735	0.842	0.892	0.738	0.7	0.6	0.892	0.686	0.759
NCI-H441	0.617	0.571	0.765	–	0.771	0.352	0.369	0.339	–	0.362
NCI-H838	0.272	0.329	0.276	0.296	0.257	0.203	0.207	0.329	0.281	0.234
NCI-H1437	0.375	0.467	0.384	0.27	0.363	1.01	1.07	1.09	0.782	0.982
